Laboratory results taken from ChEMBL document CHEMBL4130613, “Identification and Proposed Relative and Absolute Configurations of Niphimycins C-E from the Marine-Derived Streptomyces sp. IMB7-145 by Genomic Analysis” (J Nat Prod, 2018).
Converted amounts (≈) assume the structure as drawn.

Tests used:
Assay type in all cases: functional
[1] = system: Mycobacterium tuberculosis; assay: Antibacterial activity against isonizaid/rifampicin/streptomycin/ethambutol-resistant Mycobacterium tuberculosis isolate FJ05436 after 18 hrs by agar dilution method; conditions: isolate FJ05436, 18 h
[2] = system: Mycobacterium tuberculosis; assay: Antibacterial activity against isonizaid/rifampicin/streptomycin/ethambutol-resistant Mycobacterium tuberculosis isolate FJ05195 after 18 hrs by agar dilution method; conditions: isolate FJ05195, 18 h
[3] = system: Mycobacterium tuberculosis; assay: Antibacterial activity against isonizaid/rifampicin-resistant Mycobacterium tuberculosis isolate FJ05120 after 18 hrs by agar dilution method; conditions: isolate FJ05120, 18 h

CNC(=N)NCCC/C=C/CCC[C@H](C)C[C@H](C)[C@H]1OC(=O)[C@H](C)[C@H](O)/C=C/[C@H](C)[C@H](O)C[C@H](O)[C@H](C)[C@@H](O)CC[C@H](C)[C@H](O)C[C@]2(O)O[C@H](C[C@@H](OC(=O)CC(=O)O)C[C@H](O)C[C@@H](O)[C@H](C)[C@H](O)/C=C/C=C/[C@@H]1C)C[C@H](O)[C@H]2O
MIC [1]: 4 to 32 mg/L (≈ 3.5 to 28 µM)
MIC [2]: 4 to 32 mg/L (≈ 3.5 to 28 µM)
MIC [3]: 4 to 16 mg/L (≈ 3.5 to 14 µM)

CNC(=N)NCCC/C=C/CCC[C@H](C)C[C@H](C)[C@H]1OC(=O)[C@H](C)[C@H](O)/C=C/[C@H](C)[C@H](O)C[C@H](O)[C@H](C)[C@@H](O)CC[C@H](C)[C@H](O)C[C@]2(O)O[C@H](C[C@@H](O)C[C@H](OC(=O)CC(=O)O)C[C@@H](O)[C@H](C)[C@H](O)/C=C/C=C/[C@@H]1C)C[C@H](O)[C@H]2O
MIC [1]: 4 to 32 mg/L (≈ 3.5 to 28 µM)
MIC [2]: 4 to 32 mg/L (≈ 3.5 to 28 µM)
MIC [3]: 4 to 16 mg/L (≈ 3.5 to 14 µM)
